Paper PMC11079024, “Identification of a family of species-selective complex I inhibitors as potential anthelmintics” (Nature Communications, 2024)
Values joined by “and” are separate entries in the source; they are usually repeats but may differ in a detail not shown here. Equal entries are not always repeated.

Legend:
HEK293 cells = details: for CC50: read-out: HEK293 Cell Viability Assay LC50, 2 days exposure
[1] = test system: C. elegans complex IV (cytochrome C oxidase); experiment: In vitro complex IV activity assay, C. elegans mitochondria; assay type: biochemical, Caenorhabditis elegans; details: for % Activity Complex IV: 100 µM compound, relative to solvent control, mean (SEM); for Percent in vitro activity, Complex IV (single replicate Rep1-Rep4) / Percent in vitro activity, Complex IV (Mean): 100 μM of NPD compound, C. elegans mitochondria; for Percent in vitro activity, Complex IV (single replicate Rep1-Rep4): individual biological replicates; for Percent in vitro activity, Complex IV (Mean): mean of four biological replicates
Description: (§1) Mitochondria were isolated from the following free-living nematode strains: C. elegans—N2, CB3474, ECA882, ECA917, ECA1075, ECA1080; C. briggsae—AF16; P. pacificus—PS312; and P. hermaphrodita—B178. With the exception of the P. hermaphrodita strain B178, adult worms of each strain were grown in bulk through liquid culture to obtain mitochondria in sufficient quantities. Due to poor growth in liquid media, mixed stage populations of P. hermaphrodita were washed off and collected from NGM plates seeded with OP50. The isolation of mitochondria from all free-living nematode strains followed the protocol previously outlined in Burns et al.[24]. In brief, a 1 L saturated culture of E. coli HB101 was concentrated 20-fold in 50 mL complete S-medium. ~500,000 L1 worms synchronized from an embryo preparation performed the day prior were added to the S-media/HB101 suspension and grown to adulthood over the course of 3.5 days at 20 °C with shaking at 165 rpm. Following growth, worms were collected in 10 ×15 mL conical tubes and washed 7 times in M9 buffer. Worm suspensions were then combined into a single 15 mL conical tube and diluted to a final volume of 15 mL with M9 buffer. 1 mL aliquots of worm suspension were then distributed to 15 × 1.5 mL screw-cap microcentrifuge tubes and were pelleted at 500 g for 1 min. Excess M9 was aspirated without disturbing the worm pellet. 600 μL ice-cold isolate buffer A (250 mM sucrose, 10 mM Tris (pH 7.5), 1 mM EDTA, 1 mM PMSF (freshly prepared)) and 300 μL cold glass beads were then added to each tube. Tubes were incubated on ice for 10 min, and the worms were then lysed by bead beating (6 x 30 s, with 1 min cooling intervals). Tubes containing worm lysate were centrifuged at 1,000 g for 10 min at 4 °C and the supernatant was transferred to 15 new microcentrifuge tubes on ice. The tubes were centrifuged a second time at 1,000 g for 10 min at 4 °C and the supernatant was once again transferred to 15 new microcentrifuge tubes on ice. These tubes were then centrifuged at 16,000 g for 10 min at 4 °C. The resulting mitochondrial pellet was washed twice by re-suspension in 300 μL of ice-cold isolate buffer B (250 mM sucrose, 10 mM Tris (pH 7.5), 1 mM EDTA). Following the final wash, isolation buffer was aspirated from each tube and the pellets were flash-frozen in ethanol/dry ice and stored at −80 °C until needed.
(§2) The enzymatic activities of individual ETC complexes (I-IV) were assessed spectrophotometrically in isolated mitochondria using a Varioskan LUX Multimode plate reader (ThermoFisher Scientific). Mitochondrial pellets previously isolated were thawed on ice and resuspended in ice-cold isolation buffer (250 mM sucrose, 10 mM Tris (pH 7.5), 1 mM EDTA). The BCA assay (Walker, 1994) was used to quantify the protein concentration of mitochondria suspensions; solutions were diluted to a concentration of 0.2 mg/mL for use in all assays. For the complex I assay, mitochondria pellets were freeze-thawed on ice three times to increase enzyme accessibility. […] 20 μL mitochondria suspension was then added/mixed with a pipette to initiate the reaction. Immediately following the addition of mitochondria, absorbance was measured (complex I and II: 600 nm; complex III and IV: 550 nm) in 30 s intervals over 15 min. Enzymatic activity was determined in each reaction by plotting absorbance versus time and calculating the slope of the curve during the initial linear phase of the reaction. […] Percent activity of each complex was calculated by dividing the enzyme-specific activity of each well by the enzyme-specific activity of the corresponding solvent controls.
Complex IV (cytochrome C oxidase) activity was determined by following the oxidation of CytC in the protocol outlined by Janssen and Boyle, 2019[60]. Reduced CytC was prepared fresh by adding 1 μL increments of 1 M dithiothreitol to a 1 mM solution of CytC and vortexing. A colour change from brown to orange/pink signals when CytC has been reduced.

[2] = target: C. elegans complex II (succinate dehydrogenase) (Caenorhabditis elegans, UniProt O62215+P41956+Q09545); experiment: In vitro complex II activity assay, C. elegans mitochondria; assay type: biochemical; details: for % Activity Complex II: 100 µM compound, relative to solvent control, mean (SEM); for Percent in vitro activity, Complex II (single replicate Rep1-Rep4) / Percent in vitro activity, Complex II (Mean): 100 μM of NPD compound, C. elegans mitochondria; for Percent in vitro activity, Complex II (single replicate Rep1-Rep4): individual biological replicates; for Percent in vitro activity, Complex II (Mean): mean of four biological replicates
Description: as §1, §2
Complex II (succinate dehydrogenase) activity was assessed using the DCIP-coupled method previously described in Burns et al.[24].
For preliminary screens of hit compounds, compounds were screened at 100 μM; data are the average of at least three biological replicates. The complex I and II activity assays were used for additional dose-response experiments.

C. elegans = C. elegans chemical screens of RIKEN NPD libraries at 50 μM (hit identification in KCN survival and development/viability assays); assay type: cell-based, Caenorhabditis elegans; details: screened at 50 μM in triplicate; hit = modified z-score < −3; KCN = KCN survival assay, Dev. & Viability = development/viability assay
[3] = test system: C. elegans complex III (decylubiquinol-cytochrome C reductase); experiment: In vitro complex III activity assay, C. elegans mitochondria; assay type: biochemical, Caenorhabditis elegans; details: for % Activity Complex III: 100 µM compound, relative to solvent control, mean (SEM); for Percent in vitro activity, Complex III (single replicate Rep1-Rep4) / Percent in vitro activity, Complex III (Mean): 100 μM of NPD compound, C. elegans mitochondria; for Percent in vitro activity, Complex III (single replicate Rep1-Rep4): individual biological replicates; for Percent in vitro activity, Complex III (Mean): mean of four biological replicates
Description: as §1, §2
Antimycin A-sensitive complex III (decylubiquinol-cytochrome C […]) activity was determined by measuring the reduction of cytochrome C (CytC) as optimized in Luo et al.[59]. Decylubiquinol for complex III assays was prepared fresh as described in Janssen and Boyle, 2019[60].

L1 wild-type C. elegans = details: for LC50: caenorhabditis elegans
[4] = target: C. elegans (N2) complex I (NADH:ubiquinone oxidoreductase) (Caenorhabditis elegans, UniProt P24887+Q93873+Q94360); experiment: biochemical; assay type: biochemical; details: for % Activity Complex I: 100 µM compound, relative to solvent control, mean (SEM); for Percent in vitro activity, Complex I (single replicate Rep1-Rep4) / Percent in vitro activity, Complex I (Mean): 100 μM of NPD compound, C. elegans mitochondria; for Percent in vitro activity, Complex I (single replicate Rep1-Rep4): individual biological replicates; for Percent in vitro activity, Complex I (Mean): mean of four biological replicates
Summary of the method: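 Activity expressed as percent of solvent control. Complex I rate came from DCIP reduction at 600 nm (initial linear slope, 15 min) with NADH and decylubiquinone as substrates, plus antimycin A and KCN, in pH 7.5 KPi/BSA buffer. Isolated, thrice freeze-thawed mitochondria used at 0.2 mg/mL.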

Chain of C. elegans complex II (succinate dehydrogenase) (P41956 30-182): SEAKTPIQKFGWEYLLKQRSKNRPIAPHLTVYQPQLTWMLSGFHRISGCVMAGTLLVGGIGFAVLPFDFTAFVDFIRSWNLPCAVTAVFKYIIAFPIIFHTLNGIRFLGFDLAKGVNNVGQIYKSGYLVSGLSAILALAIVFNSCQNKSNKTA
Chain of C. elegans complex II (succinate dehydrogenase) (Q09545 22-298): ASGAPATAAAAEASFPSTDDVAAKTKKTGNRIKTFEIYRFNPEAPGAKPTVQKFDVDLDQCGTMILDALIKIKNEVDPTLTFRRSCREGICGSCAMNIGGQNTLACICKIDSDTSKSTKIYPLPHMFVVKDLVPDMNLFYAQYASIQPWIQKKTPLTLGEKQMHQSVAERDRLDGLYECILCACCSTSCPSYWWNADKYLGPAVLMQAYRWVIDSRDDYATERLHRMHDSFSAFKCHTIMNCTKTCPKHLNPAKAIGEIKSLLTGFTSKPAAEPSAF
Chain of C. elegans complex II (succinate dehydrogenase) (Q09508 32-646, further chain): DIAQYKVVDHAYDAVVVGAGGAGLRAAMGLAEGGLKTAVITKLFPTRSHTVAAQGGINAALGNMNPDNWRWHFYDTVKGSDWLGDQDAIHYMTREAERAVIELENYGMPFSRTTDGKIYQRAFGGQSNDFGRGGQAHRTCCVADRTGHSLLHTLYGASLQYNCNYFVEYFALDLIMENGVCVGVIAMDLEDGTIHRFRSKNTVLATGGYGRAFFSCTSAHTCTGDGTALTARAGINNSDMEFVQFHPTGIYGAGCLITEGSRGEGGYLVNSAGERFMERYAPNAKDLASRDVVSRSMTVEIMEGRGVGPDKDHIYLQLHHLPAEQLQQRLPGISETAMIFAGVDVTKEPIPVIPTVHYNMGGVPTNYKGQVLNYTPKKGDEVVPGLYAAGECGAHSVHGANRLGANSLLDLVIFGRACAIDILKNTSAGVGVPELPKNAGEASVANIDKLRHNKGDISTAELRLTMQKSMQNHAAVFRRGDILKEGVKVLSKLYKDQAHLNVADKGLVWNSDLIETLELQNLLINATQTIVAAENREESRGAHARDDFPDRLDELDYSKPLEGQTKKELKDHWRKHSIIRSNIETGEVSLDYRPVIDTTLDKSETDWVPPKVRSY
Chain of C. elegans complex II (succinate dehydrogenase) (O62215 31-145): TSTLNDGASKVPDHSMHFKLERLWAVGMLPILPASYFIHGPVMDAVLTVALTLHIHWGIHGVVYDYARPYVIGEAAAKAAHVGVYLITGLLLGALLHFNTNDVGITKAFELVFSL
Chain of C. elegans (N2) complex I (NADH:ubiquinone oxidoreductase) (Q94360 17-199): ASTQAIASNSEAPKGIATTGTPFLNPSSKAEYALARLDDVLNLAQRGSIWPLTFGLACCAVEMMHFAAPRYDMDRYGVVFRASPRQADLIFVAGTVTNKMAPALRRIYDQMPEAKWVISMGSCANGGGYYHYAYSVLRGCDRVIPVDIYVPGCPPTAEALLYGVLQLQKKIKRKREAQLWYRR
Chain of C. elegans (N2) complex I (NADH:ubiquinone oxidoreductase) (P24887 whole entry): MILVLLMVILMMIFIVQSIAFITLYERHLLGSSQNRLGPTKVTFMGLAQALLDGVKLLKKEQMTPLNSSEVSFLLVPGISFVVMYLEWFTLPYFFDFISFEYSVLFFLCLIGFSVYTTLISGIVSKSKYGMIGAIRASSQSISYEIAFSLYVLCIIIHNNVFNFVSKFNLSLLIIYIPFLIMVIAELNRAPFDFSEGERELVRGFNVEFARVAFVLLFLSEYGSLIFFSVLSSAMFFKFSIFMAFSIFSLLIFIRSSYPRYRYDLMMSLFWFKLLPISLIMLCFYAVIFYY
Chain of C. elegans (N2) complex I (NADH:ubiquinone oxidoreductase) (Q93873 31-482): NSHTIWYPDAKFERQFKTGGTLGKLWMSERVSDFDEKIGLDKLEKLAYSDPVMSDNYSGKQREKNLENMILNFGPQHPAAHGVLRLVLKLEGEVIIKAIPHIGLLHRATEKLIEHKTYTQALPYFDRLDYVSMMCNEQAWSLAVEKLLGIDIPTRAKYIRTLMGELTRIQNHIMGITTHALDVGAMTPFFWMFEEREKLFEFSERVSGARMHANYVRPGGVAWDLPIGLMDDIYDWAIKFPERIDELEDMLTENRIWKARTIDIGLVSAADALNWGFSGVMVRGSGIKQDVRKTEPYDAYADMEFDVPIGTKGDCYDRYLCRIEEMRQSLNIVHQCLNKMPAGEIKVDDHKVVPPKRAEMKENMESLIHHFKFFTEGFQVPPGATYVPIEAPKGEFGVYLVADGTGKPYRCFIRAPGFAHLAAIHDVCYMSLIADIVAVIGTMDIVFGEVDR

Row | Compound | CC50 (HEK293 cells) [µM] | % Activity Complex IV [1] | Percent in vitro activity, Complex IV (single replicate Rep1-Rep4) [1] | Percent in vitro activity, Complex IV (Mean) [1] [%] | % Activity Complex II [2] | Percent in vitro activity, Complex II (single replicate Rep1-Rep4) [2] | Percent in vitro activity, Complex II (Mean) [2] [%] | Hit Type (C. elegans) | % Activity Complex III [3] | Percent in vitro activity, Complex III (single replicate Rep1-Rep4) [3] | Percent in vitro activity, Complex III (Mean) [3] [%] | C. elegans L1 relative motility, 3-hour post 200 µM KCN dilution (L1 wild-type C. elegans) | LC50 (L1 wild-type C. elegans) [µM] | % Activity Complex I [4] | Percent in vitro activity, Complex I (single replicate Rep1-Rep4) [4] | Percent in vitro activity, Complex I (Mean) [4] [%] | HEK293 viability (HEK293 cells)
1 | O=C1OC(c2ccccc2)=NC1=CC=Cc1ccccc1 (mixture of isomers) [NPD8298] | > 50 | 108.05 (2.17) % | 99.305% and 106.055% and 106.771% and 120.048% | 108.045 | 110.37 (5.08) % | 109.359% and 85.283% and 134.975% and 111.861% | 110.370 | KCN | 101.94 (2.48) % | 91.530% and 111.178% and 95.430% and 109.622% | 101.940 | 0.014 | 2.57 | 79.90 (1.23) % | 86.721% and 79.429% and 78.427% and 75.015% | 79.898 | 
2 | CCCCCCCCCCCCCCCc1cccc(O)c1C(=O)O [Anacardic acid] | > 50 | 15.80 (1.15) % | 11.285% and 16.095% and 13.805% and 22.025% | 15.803 | 87.62 (1.34) % | 86.093% and 91.144% and 92.500% and 80.735% | 87.618 | KCN | 0.00 (0.00) % | 0.000% | 0.000 |  | 3.35 | 92.95 (1.67) % | 100.303% and 96.789% and 88.185% and 86.534% | 92.953 | 
3 | O=C(/C=C/c1ccccc1)/C=C/c1ccccc1 [FSL0005] | 7.48 | 92.29 (3.01) % | 87.534% and 94.293% and 79.459% and 107.854% | 92.285 | 80.91 (2.02) % | 88.395% and 79.227% and 70.277% and 85.744% | 80.911 | KCN | 103.92 (1.25) % | 104.719% and 106.444% and 107.817% and 96.693% | 103.918 | 0.000 | 0.93 | 91.90 (0.78) % | 93.303% and 89.704% and 95.600% and 88.991% | 91.900 | 
4 | COc1ccc(-c2cc(=Nc3ccc(C)cc3)c3ccccc3o2)cc1OC [NPD1450] | > 50 | 117.12 (3.30) % | 109.749% and 111.295% and 110.581% and 136.859% | 117.121 | 103.01 (4.34) % | 124.470% and 101.843% and 81.995% and 103.742% | 103.012 | KCN | 111.72 (0.94) % | 113.847% and 114.804% and 111.813% and 106.416% | 111.720 |  | 35.3 | 84.47 (2.03) % | 79.543% and 95.426% and 77.236% and 85.664% | 84.467 | 0.921
5 | Cc1cc(O)c(C(=O)/C=C/c2ccc(C(C)C)cc2)c(=O)o1 [NPD6240] | 24.8 | 26.82 (0.75) % | 23.388% and 25.790% and 27.706% and 30.409% | 26.823 | 87.73 (3.81) % | 105.436% and 95.089% and 72.487% and 77.924% | 87.734 | KCN | 58.21 (2.30) % | 63.255% and 68.621% and 49.848% and 51.103% | 58.207 | 0.078 | 7.6 | 102.09 (1.80) % | 109.404% and 106.987% and 94.906% and 97.066% | 102.091 | 
